In the Deep4Chem optical property database:
One block for each molecule: values may come before it.

Assay: solvent given as SMILES

Compound: C(=C\c1nc2c3ccccc3c3ccccc3c2o1)/c1ccccc1
- absorption maximum (in CC#N): 364 nm

Compound: C[Si](C)(C)c1cc2c(cc3ccc4cccc5ccc2c3c45)[nH]1
- absorption maximum (in CCOC(C)=O): 392 nm

Compound: COCCOCCOCCNc1cc2c3c(c(NCCOCCOCCOC)cc4c3c1C(=O)N(CCOCCOCCOC)C4=O)C(=O)N(CCOCCOCCOC)C2=O
- absorption maximum (in CO): 605 nm
- absorption maximum (in ClC(Cl)Cl): 610 nm
- absorption maximum (in O): 623 nm

Compound: CC(C)(C)OC(=O)/C=C/C1=CC2=C(c3ccccc3)c3cccn3[B-](F)(F)[N+]2=C1
- absorption maximum (in ClCCl): 538 nm

Compound: CCCCCCCCCCCCOc1cc(/C=C/c2ccc3c(c2)C(CC)(CC)c2cc(N4c5ccccc5Sc5ccccc54)ccc2-3)c(OCCCCCCCCCCCC)cc1/C=C/c1ccc2c(c1)C(CC)(CC)c1cc(N3c4ccccc4Sc4ccccc43)ccc1-2
- absorption maximum (in C1CCOC1): 442.41 nm
- absorption maximum (in CC#N): 436.72 nm
- absorption maximum (in CCCCCC): 436.38 nm
- absorption maximum (in Cc1ccccc1): 442.93 nm
- absorption maximum (in ClCCl): 420 nm

Compound: c1ccc2cc3c(cc2c1)-c1cccc2cc4ccccc4c-3c12
- absorption maximum (in CCCCCCC): 469 nm

Compound: CN(C)c1nc(N)nc2c1nc(C#N)n2Cc1ccccc1
- absorption maximum (in C1COCCO1): 334 nm
- absorption maximum (in CC#N): 326 nm
- absorption maximum (in CO): 327 nm
- absorption maximum (in ClCCl): 324 nm

Compound: c1ccc2c(c1)c1ccccc1n2-c1ccc2cc(-c3ccc(-c4ccc(-c5cc6ccc(-n7c8ccccc8c8ccccc87)cc6o5)cc4)cc3)oc2c1
- absorption maximum (in Cc1ccccc1): 369 nm
- absorption maximum (in c1ccc2c(c1)c1ccccc1n2-c1ccc(-c2ccc(-n3c4ccccc4c4ccccc43)cc2)cc1): 380 nm

Compound: Nc1ccc(N2C(=O)c3ccc4c5ccc6c7c(ccc(c8ccc(c3c48)C2=O)c75)C(=O)NC6=O)cc1
- absorption maximum (in CN(C)C=O): 524 nm

Compound: CC1(C)c2ccccc2N(c2ccc(-c3nc([C@]45CC6CC(C[C@@H](C6)C4)C5)nc([C@]45C[C@H]6C[C@@H](C[C@H](C6)C4)C5)n3)cc2)c2ccccc21
- absorption maximum (in Cc1ccccc1): 367.8 nm

Compound: COC(=O)[C@H](Cc1ccccc1)Nc1c(C(C)=O)c(=O)oc2cc(N(C)C)ccc12
- absorption maximum (in ClCCl): 373 nm

Compound: COc1ccc2ccc([O-])cc2c1
- absorption maximum (in O): 337 nm

Compound: CCOC(=O)c1ccccc1-c1c2ccc(=O)cc-2oc2cc(OC(=O)[C@H](CSCc3ccc(C)cc3)NC(=O)OC(C)(C)C)ccc12
- absorption maximum (in C1CCOC1): 431 nm
- absorption maximum (in CC#N): 431 nm
- absorption maximum (in CCO): 435 nm
- absorption maximum (in CS(C)=O): 457 nm

Compound: C1=Nc2cccc3cccc(c23)N1
- absorption maximum (in CC#N): 329 nm
- absorption maximum (in CO): 329 nm
- absorption maximum (in CS(C)=O): 333 nm
- absorption maximum (in Cc1ccccc1): 331 nm

Compound: COC(=O)c1[nH]c(-c2ccc(OC)cc2)c2nnc3ccc(OC)cc3c12
- absorption maximum (in ClCCl): 401 nm

Compound: CC[n+]1ccc2ccccc2c1/C=C/c1c([O-])ccc2ccc(=O)oc12
- absorption maximum (in C1CCOC1): 629.86 nm
- absorption maximum (in CC#N): 591.03 nm
- absorption maximum (in CC(C)=O): 603.44 nm
- absorption maximum (in CO): 535.64 nm
- absorption maximum (in CS(C)=O): 593.42 nm
- absorption maximum (in Cc1ccccc1): 655.01 nm
- absorption maximum (in ClC(Cl)Cl): 614.58 nm
- absorption maximum (in ClCCl): 614.58 nm
- absorption maximum (in O): 491.71 nm

Compound: CCOC(=O)c1sc2nc3c(c(C#N)c2c1N)CCCC3
- absorption maximum (in c1ccccc1): 420 nm

Compound: F[B-]1(F)n2c(cc3sc4ccccc4c32)C(c2ccc(I)cc2)=C2C=c3sc4ccccc4c3=[N+]21
- absorption maximum (in ClC(Cl)Cl): 658 nm

Compound: O=c1cc(C(F)(F)F)c2cc3c4c(c2o1)CCCN4CCC3
- absorption maximum (in C1CCCCC1): 393 nm
- absorption maximum (in CC#N): 418 nm
- absorption maximum (in CCO): 421 nm
- absorption maximum (in CCOC(C)=O): 409 nm
- absorption maximum (in OCC(O)CO): 434 nm

Compound: CCN(CC)c1ccc2c(c1)oc(=O)c1cnc3c(c(C)nn3-c3ccccc3)c12
- absorption maximum (in ClCCl): 404 nm

Compound: CCCCC(CC)Cn1c2cc(C#N)ccc2c2ccc(C#Cc3ccc4ccc5cccc6ccc3c4c56)cc21 (stereo unspecified)
- absorption maximum (in ClCCl): 410 nm

Compound: CC[Si](C#Cc1c2c(=O)c3ccccc3c2c(C#C[Si](CC)(CC)CC)c2c(=O)c3ccccc3c12)(CC)CC
- absorption maximum (in ClC(Cl)Cl): 522 nm

Compound: CN(C)c1cc(-c2ccccc2)cc2ccccc12
- absorption maximum (in ClCCl): 318 nm

The remaining lines, values ahead:

- absorption maximum (in ClC(Cl)Cl): 345 nm
Compound: C(#Cc1ccc(C#Cc2ccc(C#Cc3ccccc3)cc2)cc1)c1ccccc1

- absorption maximum (in C1CCCCC1): 385.82 nm
Compound: C[Si](C)(c1cccc2cc3ccccc3cc12)[Si](C)(C)c1cccc2cc3ccccc3cc12

- absorption maximum (in C1CCOC1): 386 nm
Compound: CC(=O)c1ccc(-c2cnc3nn4ccccc4c3c2)cc1

- absorption maximum (in C1CCOC1): 500 nm
Compound: FC(F)(F)C(F)(F)C(F)(F)C1=NC2=C(c3ccccc3)C=C3c4cc(-c5ccccc5)c5nc(C(F)(F)C(F)(F)C(F)(F)F)nc6c(-c7ccccc7)cc(c4c56)=C4C=C(c5ccccc5)C(=N1)C2C34 (stereo unspecified)

- absorption maximum (in C1CCOC1): 340 nm
Compound: O=C(c1ccc(C(=C(c2ccc(C(=O)c3ccc(-n4c5ccccc5c5ccccc54)cc3)cc2)c2ccc(C(=O)c3ccc(-n4c5ccccc5c5ccccc54)cc3)cc2)c2ccccc2)cc1)c1ccc(-n2c3ccccc3c3ccccc32)cc1

- absorption maximum (in ClC(Cl)Cl): 306 nm
Compound: COc1ccc(-c2ncc3ccccn23)cc1

- absorption maximum (in CCO): 364 nm
Compound: CCOC(=O)c1cc(C(=O)OCC)c2cc(O)ccc2n1

- absorption maximum (in CCCCCC): 439 nm
- absorption maximum (in CO): 443 nm
Compound: O=C1C=C(Nc2ccc(F)cc2F)C(=O)c2ccccc21

- absorption maximum (in CCO): 590 nm
- absorption maximum (in O): 590 nm
Compound: CC/[NH+]=c1\cc2oc3cc(NCCC(=O)NCCCCC(NC(C)=O)C(=O)OC)c4ccccc4c3nc-2cc1C (stereo unspecified)

- absorption maximum (in ClCCl): 361 nm
Compound: O=C1c2ccccc2C2=Nc3cccc[n+]3[B-](F)(F)N12

- absorption maximum (in ClC(Cl)Cl): 424 nm
Compound: CCN(CC)c1ccc2cc(-c3cn4cc(C)ccc4n3)c(=O)oc2c1

- absorption maximum (in ClCCl): 636 nm
Compound: CCCC1=Cc2nc1ccc1[nH]c(cc1CCC)c1nc(c(NC(=O)CCCC(=O)O)cc3[nH]c2cc3CCC)C(CCC)=C1

- absorption maximum (in ClCCl): 615 nm
Compound: COc1ccc(C#Cc2c3cc4ccccc4cc3c(C#Cc3ccc(OC)cc3)c3cc4sc(C)cc4cc23)cc1

- absorption maximum (in ClCCl): 526 nm
- absorption maximum (in OCC(F)(F)F): 512 nm
Compound: C=CCOc1nnc(OCCC(F)(F)C(F)(F)C(F)(F)C(F)(F)C(F)(F)C(F)(F)C(F)(F)C(F)(F)F)nn1

- absorption maximum (in C1COCCO1): 403 nm
- absorption maximum (in CC#N): 400 nm
- absorption maximum (in ClCCl): 408 nm
Compound: Cc1nc2ccc(/C=C/c3ccc(N(C)C)cc3)cc2nc1-c1ccccc1

- absorption maximum (in ClC(Cl)Cl): 347 nm
Compound: CC(C)(C)c1ccc2oc3nc4oc5cc(-n6c7ccccc7c7ccccc76)ccc5c4cc3c2c1

- absorption maximum (in ClC(Cl)Cl): 380 nm
Compound: CCCCC1(c2ccccc2)Nc2c(-c3ccc(N(C)c4ccccc4)cc3)ccc(-c3ccc(N(C)c4ccccc4)cc3)c2N=C1c1ccccc1 (stereo unspecified)

- absorption maximum (in ClCCl): 473 nm
Compound: CCCc1ccc(C#Cc2cc(C#Cc3ccc(CCC)cc3)c3ccc4c(C#Cc5ccc(N(C)C)cc5)cc(C#Cc5ccc(CCC)cc5)c5ccc2c3c54)cc1

- absorption maximum (in CC#N): 472 nm
Compound: COC(=O)/C=C/c1sc(-c2ccc(N(C)C)s2)c(-c2ccsc2)c1N

- absorption maximum (in C1CCOC1): 381 nm
Compound: CC(C)(C)c1cc2c3c(c1)-c1cccc4c1N(B3N1c3ccccc3Sc3cccc-2c31)c1ccccc1S4

- absorption maximum (in CC#N): 330 nm
Compound: c1ccc(-c2nc3cc4c(cc3n2-c2ccccc2)nc(-c2ccccc2)n4-c2ccccc2)cc1

- absorption maximum (in CC#N): 335 nm
Compound: Cc1ccc(-c2ccc(/C=C/c3ccccc3)cn2)nc1

- absorption maximum (in ClCCl): 488 nm
Compound: CCCc1ccc(C#Cc2cc(C#Cc3ccc(N(C)C)cc3)c3ccc4c(C#Cc5ccc(N(C)C)cc5)cc(C#Cc5ccc(CCC)cc5)c5ccc2c3c54)cc1

- absorption maximum (in ClCCl): 528 nm
Compound: F[B-]1(F)N2C=CN=CC2=[N+]2[N+]1=Cc1c(-c3ccccc3)cc(-c3ccccc3)n1[B-]2(F)F

- absorption maximum (in ClCCl): 330 nm
Compound: C(#Cc1ncc(-c2ccccc2)o1)c1cccnc1
